The values below come from BindingDB's records for PubMed 10779381 (University of Ferrara, 2000).

Where “and” joins values, the source holds several entries; their conditions need not be identical. Identical values can stand only once. Bounds are passed on as bounds.

In test [1] the target is T1, Adenosine receptor A3 (Homo sapiens, UniProt P0DMS8).
T1 sequence (P0DMS8 whole entry): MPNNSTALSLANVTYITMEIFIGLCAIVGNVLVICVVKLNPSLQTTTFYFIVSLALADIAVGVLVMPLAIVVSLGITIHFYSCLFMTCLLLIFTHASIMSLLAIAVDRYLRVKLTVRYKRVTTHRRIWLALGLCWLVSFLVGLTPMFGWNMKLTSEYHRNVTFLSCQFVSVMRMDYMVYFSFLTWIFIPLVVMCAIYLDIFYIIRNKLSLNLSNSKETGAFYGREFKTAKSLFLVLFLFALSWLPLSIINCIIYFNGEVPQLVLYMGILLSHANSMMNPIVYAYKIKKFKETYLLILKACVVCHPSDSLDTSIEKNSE

The target in test [2] is T2, Adenosine receptor A1 (Rattus norvegicus, UniProt P25099).
T2 sequence (P25099 whole entry): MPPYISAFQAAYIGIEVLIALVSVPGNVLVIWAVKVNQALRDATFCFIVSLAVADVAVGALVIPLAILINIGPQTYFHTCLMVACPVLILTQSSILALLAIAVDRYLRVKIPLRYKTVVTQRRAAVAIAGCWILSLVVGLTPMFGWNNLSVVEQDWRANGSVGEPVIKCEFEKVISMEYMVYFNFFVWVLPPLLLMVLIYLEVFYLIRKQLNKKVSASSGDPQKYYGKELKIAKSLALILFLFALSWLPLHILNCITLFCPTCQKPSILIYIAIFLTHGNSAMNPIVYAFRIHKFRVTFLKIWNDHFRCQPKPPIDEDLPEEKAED

In the case of `Nc1nc2ccc(Cl)cc2c2nc(-c3ccco3)nn12`, in test [1], the Ki is 90 nM and 65 nM.

The compound `Nc1nc2c(cnn2CCc2ccccc2)c2nc(-c3ccco3)nn12` had an inhibition constant (Ki) in test [1] greater than 10000 nM. As for `CCCn1cc2c(nc(NC(=O)Nc3cccc(Cl)c3)n3nc(-c4ccco4)nc23)n1` [1-(3-chlorophenyl)-3-[2-(furan-2-yl)-8-propyl-8H-pyrazolo[4,3-e][1,2,4]triazolo[1,5-c]pyrimidin-5-yl]urea], the inhibition constant (Ki) in test [1] was 0.48 nM and 0.98 nM. Regarding `CCCn1cc2c(nc(NC(=O)Nc3ccc(OC)cc3)n3nc(-c4ccco4)nc23)n1` [J1.251.181G], the inhibition constant (Ki) in test [2] is greater than 10000 nM.
